Test results: the RepoRT retention time repository (doi:10.1007/s00216-013-6954-6)

Test: RP, Waters ACQUITY UPLC HSS T3, 150 × 2.1 mm, 1.8 µm; A: water + 0.1% formic acid; B: acetonitrile + 0.1% formic acid; gradient (min/%B) 0/5 1/5 16/95 18/95
Conditions: stereoisomer not certain

LC retention time [min]	Structure (SMILES)
0.8	Nc1ncnc2c1ncn2C1CC(O)C(CO)O1 (stereo not given)
1.1	COC1C(O)C(CO)OC1n1cnc2c(N)ncnc21 (stereo not given)
0.643	O=c1[nH]c(=O)c2[nH]c(=O)[nH]c2[nH]1
4.37	O=C(O)C(O)Cc1ccccc1 (stereo not given)
2.9	CCC(C)C(NC(=O)C(N)Cc1ccc(O)cc1)C(=O)O (stereo not given)
7.57	CC(CCC(=O)NCCS(=O)(=O)O)C1CCC2C3C(O)CC4CC(O)CCC4(C)C3CC(O)C12C (stereo not given)
1.7	NC(Cc1ccccc1)C(=O)NCC(=O)O (stereo not given)
8.1	CS(=O)CCCCCCCCN=C=S (stereo not given)
0.407	Cn1cnc(CC(N)C(=O)O)c1 (stereo not given)
3.2	COc1cc(C=CCO)cc(OC)c1OC1OC(CO)C(O)C(O)C1O (stereo not given)
10.5	CC(CCC(=O)O)C1CCC2C3C(O)CC4CC(O)CCC4(C)C3CCC12C (stereo not given)
3.3	CCC(C)C(NC(=O)C(N)CC(C)C)C(=O)O (stereo not given)
5.35	O=C(O)CCCCCCCC(=O)O
1.95	Nc1ccc(C(=O)O)cc1

Structure (SMILES)	LC retention time [min]
COc1cccc2[nH]cc(CN)c12	3.2
O=c1ccc2cc(OC3OC(CO)C(O)C(O)C3O)c(O)cc2o1 (stereo not given)	2.9
O=C(O)Cc1ccccc1	3.6

Test: RP, Waters ACQUITY UPLC HSS T3, 100 × 1 mm, 1.8 µm; A: water + 0.1% formic acid, pH 3; B: acetonitrile + 0.1% formic acid, pH 3; gradient (min/%B) 0/5 1/5 16/95 18/95 20/5
Conditions: stereoisomer not certain

Structure (SMILES)	LC retention time [min]
O=C(O)Cc1ccccc1 [Phenylacetic acid]	3.6
NCc1c[nH]c2ccccc12 [Indol-3-ylmethylamine (I3CH2NH2)]	1.8
O=C(O)CCCC(=O)O [Glutaric acid]	1.14
CC(CCC(=O)O)C1CCC2C3C(O)CC4CC(O)CCC4(C)C3CC(O)C12C (stereo not given) [Cholic acid]	8.94
Nc1ncnc2c1ncn2C1CC(O)C(CO)O1 (stereo not given)	0.8
NCC(=O)NC(Cc1ccccc1)C(=O)O (stereo not drawn) [H-Gly-Phe-OH]	2.3
CC(C)CC(N)C(=O)NC(CC(C)C)C(=O)O (stereo not drawn) [H-Leu-Leu-OH]	3.6
NC(=O)NCCCC(N)C(=O)O (stereo not given) [Citrulline]	0.457
CCC(C)C(NC(=O)C(N)CC(C)C)C(=O)O (stereo not drawn) [H-Leu-Ile-OH]	3.3
CC12CCC(=O)C=C1CCC1C2C(=O)CC2(C)C1CCC2(O)C(=O)CO (stereo not given) [Cortisone]	6.61
O=C(O)C1Cc2c([nH]c3ccccc23)CN1 (stereo not given) [3-Carboxy-1,2,3,4-tetrahydro-2-carboline]	3.1
CS(=O)CCCCCCCCN=C=S (stereo not drawn) [8-MeSO-Octyl-NCS]	8.1
COn1cc(CN)c2ccccc21 [1-MeO-I3CH2NH2]	3.7
CCC(C)C(N)C(=O)NC(C(=O)O)C(C)CC (stereo not drawn) [H-Ile-Ile-OH]	3.1
CC(CCC(=O)NCC(=O)O)C1CCC2C3C(O)CC4CC(O)CCC4(C)C3CC(O)C12C (stereo not given) [Glycocholic acid]	7.92
CCC(C)C(N)C(=O)NC(Cc1ccccc1)C(=O)O (stereo not drawn) [H-Ile-Phe-OH]	3.9
NC(N)=NCCCC(N)C(=O)O (stereo not given) [Arginine]	0.413
COc1cc(C=CCO)ccc1OC1OC(CO)C(O)C(O)C1O (stereo not given) [Coniferin]	3
O=c1ccc2cc(OC3OC(CO)C(O)C(O)C3O)c(O)cc2o1 (stereo not given) [Esculin]	2.9
COC1C(O)C(CO)OC1n1cnc2c(N)ncnc21 (stereo not given)	1.1
CCC(C)C(N)C(=O)NC(CC(C)C)C(=O)O (stereo not drawn) [H-Ile-Leu-OH]	3.4
Nc1nc2c(ncn2C2OC(CO)C(O)C2O)c(=O)[nH]1 (stereo not given) [Guanosine]	1.1
CC(CCC(=O)O)C1CCC2C3C(O)CC4CC(O)CCC4(C)C3CCC12C (stereo not given) [Chenodeoxycholic acid]	10.5
Nc1ncnc2nc[nH]c12 [Adenine]	0.525
CC(CCC(=O)O)C1CCC2C3CCC4CC(O)CCC4(C)C3CC(O)C12C (stereo not given) [Deoxycholic acid]	10.7
O=C(O)CCCCCCCC(=O)O [Azelaic acid]	5.35
Cn1cnc(C[C@H](N)C(=O)O)c1 [1-Methyl-L-Histidine]	0.407
COc1cccc2[nH]cc(CN)c12 [4-MeO-I3CH2NH2]	3.2
Cn1c(=O)c2c(ncn2C)n(C)c1=O [Caffeine]	3.46
O=C(O)CCCCC(=O)O [Adipic acid]	2.33

Continued, values first:

LC retention time [min]	Structure (SMILES)
0.687	O=C1CCC(C(=O)O)N1 (stereo not given) [Pyroglutamic acid]
7.57	CC(CCC(=O)NCCS(=O)(=O)O)C1CCC2C3C(O)CC4CC(O)CCC4(C)C3CC(O)C12C (stereo not given) [Taurocholic acid]
4.6	CSCCCCCCCC(N)C(=O)O (stereo not given) [Pentahomo-Met]
1.95	Nc1ccc(C(=O)O)cc1 [paba]
3.2	CC(C)CC(NC(=O)C(N)Cc1ccc(O)cc1)C(=O)O (stereo not drawn) [H-Tyr-Leu-OH]
3.39	O=C(O)CNC(=O)c1ccccc1 [Hippuric acid]
0.839	O=c1[nH]cnc2c1ncn2C1OC(CO)C(O)C1O (stereo not given) [Inosine]
2.8	CC(C)CC(N)C(=O)NC(Cc1ccc(O)cc1)C(=O)O (stereo not drawn) [H-Leu-Tyr-OH]
0.643	O=c1[nH]c(=O)c2[nH]c(=O)[nH]c2[nH]1 [Uric acid]
3.3	CC(C)C(N)C(=O)NC(Cc1ccccc1)C(=O)O (stereo not drawn) [H-Val-Phe-OH]
12	CCCCCCCCC=CCCCCCCCC(=O)OCC(O)COP(=O)([O-])OCC[N+](C)(C)C (stereo not given) [lysoPC(18:1(9Z)/0:0)]
11.6	CCCCCCCCCCCCCCCC(=O)OCC(O)COP(=O)([O-])OCC[N+](C)(C)C (stereo not given) [lysoPC(16:0/0:0)]
0.795	CCC(C)C(N)C(=O)O (stereo not given) [Isoleucine]
5.6	COc1cc(CC2COC(c3ccc(O)c(OC)c3)C2CO)ccc1O (stereo not given) [Lariciresinol]
0.795	CC(C)CC(N)C(=O)O (stereo not given) [Leucine]
3.92	Cc1cc2nc3c(=O)[nH]c(=O)nc-3n(CC(O)C(O)C(O)CO)c2cc1C (stereo not given) [Riboflavin]
0.446	NCCS(=O)(=O)O [Taurine]
1.6	Cc1cn(C2CC(O)C(CO)O2)c(=O)[nH]c1=O (stereo not given) [Thymidine]
4.2	CC(C)CC(N)C(=O)NC(Cc1ccccc1)C(=O)O (stereo not given) [H-Leu-Phe -OH]

LC retention time [min]	Structure (SMILES)
3	CC(C)C(NC(=O)C(N)Cc1ccccc1)C(=O)O (stereo not drawn) [H-Phe-Val-OH]
0.482	O=C(O)C1CCCN1 (stereo not given) [Proline]
3.3	COc1cc2ccc(=O)oc2cc1OC1OC(CO)C(O)C(O)C1O (stereo not given) [Scopolin]
3.8	CCC(C)C(NC(=O)C(N)Cc1ccccc1)C(=O)O (stereo not drawn) [H-Phe-Ile-OH]
6.56	CC12CCC(=O)C=C1CCC1C2C(O)CC2(C)C1CCC2(O)C(=O)CO (stereo not given) [hydrocortisone, cortisol]
2.7	CC(C)CC(NC(=O)C(N)C(C)C)C(=O)O (stereo not drawn) [H-Val-Leu-OH]
4.37	O=C(O)C(O)Cc1ccccc1 (stereo not given) [phenyllactic acid]
3.2	COc1cc(C=CCO)cc(OC)c1OC1OC(CO)C(O)C(O)C1O (stereo not given) [Syringin]
0.733	CC(C(=O)O)C(=O)O [Methylmalonic acid]
2.6	CC(C)CC(N)C(=O)N1CCCC1C(=O)O (stereo not drawn) [H-Leu-Pro-OH]
5.4	CSCCCCCCCCC(N)C(=O)O (stereo not given) [Hexahomo-Met]
4.7	O=C(O)c1c[nH]c2ccccc12 [Indole-3-carboxylic acid (I3CO2H)]
3.47	O=C(O)CCCCCC(=O)O [Pimelic acid]
4.1	CC(C)CC(NC(=O)C(N)Cc1ccccc1)C(=O)O (stereo not drawn) [H-Phe-Leu-OH]
1.7	NC(Cc1ccccc1)C(=O)NCC(=O)O (stereo not drawn) [H-Phe-Gly-OH]
2.9	CCC(C)C(NC(=O)C(N)Cc1ccc(O)cc1)C(=O)O (stereo not drawn) [H-Tyr-Ile-OH]
0.643	CSCCC(N)C(=O)O (stereo not given) [Methionine]
0.638	O=c1cc[nH]c(=O)[nH]1 [Uracil]
4.5	COc1cc2ccc(=O)oc2cc1O [Scopoletin]
